Results from BindingDB's records for doi:10.1021/jm00098a008 (University of Minnesota, 1992).

Biological target: Alcohol dehydrogenase 1 (Saccharomyces cerevisiae) (UniProt P00330)
Assay: Inhibitory activity against yeast alcohol dehydrogenase

Alcohol dehydrogenase 1 (Saccharomyces cerevisiae), sequence (P00330 whole entry, looked up): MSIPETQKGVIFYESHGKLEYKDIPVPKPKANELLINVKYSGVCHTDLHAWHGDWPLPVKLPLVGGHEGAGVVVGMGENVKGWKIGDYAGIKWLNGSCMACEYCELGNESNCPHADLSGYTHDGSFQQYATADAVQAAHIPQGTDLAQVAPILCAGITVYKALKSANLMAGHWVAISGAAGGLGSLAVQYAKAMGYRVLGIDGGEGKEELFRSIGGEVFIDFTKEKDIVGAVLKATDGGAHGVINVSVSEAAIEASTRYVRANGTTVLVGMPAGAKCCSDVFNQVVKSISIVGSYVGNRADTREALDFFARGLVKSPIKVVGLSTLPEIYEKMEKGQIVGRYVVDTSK

IC50	SMILES
39 µM	CC(=O)ON(C(C)=O)S(=O)(=O)c1ccc(Cl)cc1
25 µM	N#CN(OC(=O)c1ccccc1)C(=O)c1ccccc1
